US20230263822A1, “MODULATION OF FACTOR 11 EXPRESSION” (Ionis Pharmaceuticals, Inc., priority 2008, published 2023)
pIC50: −log10 of the molar value.

Experiments:
[1] = tested on: human Factor 11 mRNA; assay: Dose-dependent inhibition of human Factor 11 in HepG2 cells, electroporation 625-20,000 nM (Example 5); format: cell-based; conditions: ~16 hours
Procedure: The gapmers were also transfected via electroporation and their dose dependent inhibition of human Factor 11 mRNA was measured. Cells were plated at a density of 20,000 cells per well and transfected via electroporation with 625 nM, 1250 nM, 2500 nM, 5,000 nM, 10,000 nM, and 20,000 nM concentrations of antisense oligonucleotide, as specified in Table 12. After a treatment period of approximately 16 hours, RNA was isolated from the cells and human Factor 11 mRNA levels were measured by quantitative real-time PCR. Human Factor 11 primer probe set RTS 2966 was used to measure mRNA levels. Factor 11 mRNA levels were adjusted according to total RNA content, as measured by RIBOGREEN. Results are presented as percent inhibition of human Factor 11, relative to untreated control cells.

[2] = tested on: human Factor 11 mRNA; assay: Dose-dependent inhibition of human Factor 11 in cyano primary hepatocytes, electroporation (Example 6); format: cell-based; conditions: ~16 hours
Procedure: Cells were plated at a density of 35,000 cells per well and transfected via electroporation with 0.74 nM, 2.2 nM, 6.7 nM, 20 nM, 60 nM, and 180 nM concentrations of antisense oligonucleotide, as specified in Table 13. After a treatment period of approximately 16 hours, RNA was isolated from the cells and human Factor 11 mRNA levels were measured by quantitative real-time PCR. Human Factor 11 primer probe set RTS 2966 was used to measure mRNA levels. Factor 11 mRNA levels were adjusted according to total RNA content, as measured by RIBOGREEN. Results are presented as percent inhibition of human Factor 11, relative to untreated control cells.

[3] = tested on: human Factor 11 mRNA; assay: Dose-dependent inhibition of human Factor 11 in HepB3 cells, lipofectin (Example 7); format: cell-based; conditions: for percent inhibition of Factor 11 mRNA relative to untreated control cells: ~16 hours
Procedure: Cells were plated at a density of 4,000 cells per well and transfected using lipofectin reagent with 2.3 nM, 4.7 nM, 9.4 nM, 18.75 nM, 37.5 nM, and 75 nM concentrations of antisense oligonucleotide, as specified in Table 14. After a treatment period of approximately 16 hours, RNA was isolated from the cells and human Factor 11 mRNA levels were measured by quantitative real-time PCR. Human Factor 11 primer probe set RTS 2966 was used to measure mRNA levels. Factor 11 mRNA levels were adjusted according to total RNA content, as measured by RIBOGREEN. Results are presented as percent inhibition of Factor 11, relative to untreated control cells.

[4] = Tolerability in CD1 mice: organ weight (Example 33); format: in vivo; conditions: 50 mg/kg s.c. twice a week, vs PBS control, normalized to body weight
Procedure: Three days after the last dose was administered to all groups, the mice were sacrificed.

[5] = Tolerability in Sprague-Dawley rats: body weight and organ weight (Example 35); format: in vivo; conditions: 50 mg/kg s.c. twice per week for 6 weeks; for Percent change: Body weight: percent change over the weights at the start of the study; for Percent change in organ weight: Kidney / Percent change in organ weight: Liver / Percent change in organ weight: Spleen: vs saline control, normalized to body weight
Source text: Urine samples were taken before the start of treatment.
The body weights are presented in Table 71 and are expressed as a percent change over the weights taken at the start of the study.

Row | Substance | percent inhibition of human Factor 11 mRNA relative to untreated control cells ([1]; 625 nM) [%] | percent inhibition of human Factor 11 mRNA relative to untreated control cells ([1]; 1250 nM) [%] | percent inhibition of human Factor 11 mRNA relative to untreated control cells ([1]; 2500 nM) [%] | percent inhibition of human Factor 11 mRNA relative to untreated control cells ([1]; 5000 nM) [%] | percent inhibition of human Factor 11 mRNA relative to untreated control cells ([1]; 10000 nM) [%] | percent inhibition of human Factor 11 mRNA relative to untreated control cells ([1]; 20000 nM) [%] | percent inhibition of human Factor 11 mRNA relative to untreated control cells ([2]; 0.74 nM) [%] | percent inhibition of human Factor 11 mRNA relative to untreated control cells ([2]; 2.2 nM) [%] | percent inhibition of human Factor 11 mRNA relative to untreated control cells ([2]; 6.7 nM) [%] | percent inhibition of human Factor 11 mRNA relative to untreated control cells ([2]; 20 nM) [%] | percent inhibition of human Factor 11 mRNA relative to untreated control cells ([2]; 60 nM) [%] | percent inhibition of human Factor 11 mRNA relative to untreated control cells ([2]; 180 nM) [%] | pIC50 [3] | percent inhibition of Factor 11 mRNA relative to untreated control cells ([3]; 2.3 nM) [%] | percent inhibition of Factor 11 mRNA relative to untreated control cells ([3]; 4.7 nM) [%] | percent inhibition of Factor 11 mRNA relative to untreated control cells ([3]; 9.4 nM) [%] | percent inhibition of Factor 11 mRNA relative to untreated control cells ([3]; 18.75 nM) [%] | percent inhibition of Factor 11 mRNA relative to untreated control cells ([3]; 37.5 nM) [%] | percent inhibition of Factor 11 mRNA relative to untreated control cells ([3]; 75 nM) [%] | Percent change in kidney weight ([4]; 2 weeks) [%] | further results
1 | 416826 (antisense ATGCCCTTCATGTCTAGGTC; 5-10-5 gapmer, further chemistry not given here) [compound 416826] | 67 | 82 | 89 | 92 | 95 | 97 | 13 | 24 | 34 | 67 | 69 | 71 | 7.80 | 16 | 28 | 38 | 55 | 64 | 66 | −13 | Percent change in liver weight ([4]; 2 weeks): +10%; Percent change in spleen weight ([4]; 2 weeks): −12%; Percent change in kidney weight ([4]; 4 weeks): −7%; Percent change in liver weight ([4]; 4 weeks): +32%; Percent change in spleen weight ([4]; 4 weeks): −5%; Percent change in kidney weight ([4]; 6 weeks): −22%; Percent change in liver weight ([4]; 6 weeks): +33%; Percent change in spleen weight ([4]; 6 weeks): +22%; Percent change: Body weight [5]: −40%; Percent change in organ weight: Kidney [5]: +44%; Percent change in organ weight: Liver [5]: +81%; Percent change in organ weight: Spleen [5]: +537%
2 | 416999 (antisense GCACAGTTTCTGGCAGGCCT; 2-13-5 gapmer chemistry, further chemistry not given here) [compound 416999] | 61 | 82 | 89 | 94 | 94 | 97 | 3 | 40 | 36 | 62 | 67 | 82 | 7.92 | 19 | 33 | 42 | 60 | 71 | 59 | −9 | Percent change in liver weight ([4]; 2 weeks): +13%; Percent change in spleen weight ([4]; 2 weeks): +7%; Percent change in kidney weight ([4]; 4 weeks): −6%; Percent change in liver weight ([4]; 4 weeks): +30%; Percent change in spleen weight ([4]; 4 weeks): +22%; Percent change in kidney weight ([4]; 6 weeks): −7%; Percent change in liver weight ([4]; 6 weeks): +47%; Percent change in spleen weight ([4]; 6 weeks): +38%; Percent change: Body weight [5]: −37%; Percent change in organ weight: Kidney [5]: +71%; Percent change in organ weight: Liver [5]: +51%; Percent change in organ weight: Spleen [5]: +405%
3 | 416925 (antisense GGTGCACAGTTTCTGGCAGG; 3-14-3 gapmer chemistry, further chemistry not given here) [compound 416925] | 64 | 80 | 88 | 91 | 95 | 96 | 0 | 9 | 1 | 48 | 55 | 76 | 7.92 | 26 | 33 | 45 | 59 | 72 | 60 | −4 | Percent change in liver weight ([4]; 2 weeks): +14%; Percent change in spleen weight ([4]; 2 weeks): −7%; Percent change in kidney weight ([4]; 4 weeks): −14%; Percent change in liver weight ([4]; 4 weeks): +14%; Percent change in spleen weight ([4]; 4 weeks): +33%; Percent change in kidney weight ([4]; 6 weeks): −2%; Percent change in liver weight ([4]; 6 weeks): +33%; Percent change in spleen weight ([4]; 6 weeks): +78%; Percent change: Body weight [5]: −32%; Percent change in organ weight: Kidney [5]: +48%; Percent change in organ weight: Liver [5]: +44%; Percent change in organ weight: Spleen [5]: +371%
4 | 416838 (antisense GCAACCGGGATGATGAGTGC; 5-10-5 gapmer, further chemistry not given here) [compound 416838] | 66 | 79 | 87 | 90 | 93 | 96 | 0 | 0 | 21 | 34 | 48 | 62 | 7.96 | 23 | 34 | 43 | 59 | 71 | 56 | −2 | Percent change in liver weight ([4]; 2 weeks): +8%; Percent change in spleen weight ([4]; 2 weeks): +21%; Percent change in kidney weight ([4]; 4 weeks): −12%; Percent change in liver weight ([4]; 4 weeks): −6%; Percent change in spleen weight ([4]; 4 weeks): −8%; Percent change in kidney weight ([4]; 6 weeks): −8%; Percent change in liver weight ([4]; 6 weeks): 0%; Percent change in spleen weight ([4]; 6 weeks): +9%; Percent change: Body weight [5]: −23%; Percent change in organ weight: Kidney [5]: −0.5%; Percent change in organ weight: Liver [5]: +8%; Percent change in organ weight: Spleen [5]: +212%
